Several values for one entry are separate records, joined by “and”; a condition that tells them apart may be missing. Identical values can stand only once. Inconclusive results and toxic doses are left out.
Test system: L1210 leukemia ip in BDF1 mice, survival T/C
Assay: NCI In Vivo Anticancer Drug Screen. Data for tumor model L1210 Leukemia (intraperitoneal) in B6D2F1 (BDF1) mice
Conditions: endpoint: mean survival time, higher = longer survival
Outline: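 Survival endpoint. Drug-treated group vs vehicle group, expressed as T divided by C. Tumor passaged by transplantation.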

[1] = dose: 100.0 mg/kg/injection, schedule: Q01DX009 (ip), vehicle: Klucel (hydroxypropylcellulose) (HPC)
[2] = dose: 200.0 mg/kg/injection, schedule: Q01DX009 (ip), vehicle: Klucel (hydroxypropylcellulose) (HPC)
[3] = dose: 400.0 mg/kg/injection, schedule: Q01DX009 (ip), vehicle: Klucel (hydroxypropylcellulose) (HPC)
[4] = dose: 50.0 mg/kg/injection, schedule: Q01DX009 (ip), vehicle: saline
[5] = dose: 100.0 mg/kg/injection, schedule: Q04DX003 (ip), vehicle: saline
[6] = dose: 200.0 mg/kg/injection, schedule: Q04DX003 (ip), vehicle: saline
[7] = dose: 100.0 mg/kg/injection, schedule: Q04DX003 (ip), vehicle: saline with Tween-80
[8] = dose: 200.0 mg/kg/injection, schedule: Q04DX003 (ip), vehicle: saline with Tween-80
[9] = dose: 400.0 mg/kg/injection, schedule: Q04DX003 (ip), vehicle: saline with Tween-80
[10] = dose: 100.0 mg/kg/injection, schedule: Q04DX003 (ip), vehicle: gum acacia
[11] = dose: 200.0 mg/kg/injection, schedule: Q04DX003 (ip), vehicle: gum acacia
[12] = dose: 400.0 mg/kg/injection, schedule: Q04DX003 (ip), vehicle: gum acacia

O=S(=O)(Nc1ccc(F)cc1)c1ccccc1
T/C [1]: 96 % of control | T/C (dose: 100.0 mg/kg/injection, schedule: Q04DX003 (ip), vehicle: Klucel (hydroxypropylcellulose) (HPC)): 103 % of control | T/C [2]: 102 % of control | T/C (dose: 200.0 mg/kg/injection, schedule: Q04DX003 (ip), vehicle: Klucel (hydroxypropylcellulose) (HPC)): 95 % of control | T/C [3]: 105 % of control | T/C (dose: 400.0 mg/kg/injection, schedule: Q04DX003 (ip), vehicle: Klucel (hydroxypropylcellulose) (HPC)): 93 % of control

O=C(O)C(Cc1ccccc1)Cc1ccccc1
T/C (dose: 100.0 mg/kg/injection, schedule: Q01DX001 (ip), vehicle: saline): 97 % of control | T/C (dose: 200.0 mg/kg/injection, schedule: Q01DX001 (ip), vehicle: saline): 103 % of control | T/C (dose: 400.0 mg/kg/injection, schedule: Q01DX001 (ip), vehicle: saline): 109 % of control

Clc1ccc(/C=C/c2ccccc2)cc1
T/C (dose: 44.0 mg/kg/injection, schedule: Q01DX001 (ip), vehicle: other): 96 % of control | T/C (dose: 66.0 mg/kg/injection, schedule: Q01DX001 (ip), vehicle: other): 105 % of control | T/C (dose: 100.0 mg/kg/injection, schedule: Q01DX001 (ip), vehicle: other): 100 % of control | T/C (dose: 150.0 mg/kg/injection, schedule: Q01DX001 (ip), vehicle: other): 97 % of control | T/C (dose: 200.0 mg/kg/injection, schedule: Q01DX001 (ip), vehicle: other): 100 % of control | T/C (dose: 400.0 mg/kg/injection, schedule: Q01DX001 (ip), vehicle: other): 111 % of control

Cc1ccc(C(SCC(N)C(=O)O)(c2ccccc2)c2ccc(C)cc2)cc1 (stereo not given)
T/C (dose: 6.25 mg/kg/injection, schedule: Q01DX009 (ip), vehicle: other): 124 % of control | T/C (dose: 12.5 mg/kg/injection, schedule: Q01DX009 (ip), vehicle: other): 152 % of control | T/C (dose: 12.5 mg/kg/injection, schedule: Q01DX009 (ip), vehicle: saline): 156 % of control and 197 % of control | T/C (dose: 25.0 mg/kg/injection, schedule: Q01DX009 (ip), vehicle: other): 164 % of control | T/C (dose: 25.0 mg/kg/injection, schedule: Q01DX009 (ip), vehicle: saline): 179 % of control and 195 % of control | T/C [4]: 113 % of control and 88 % of control

CCNCCCOCC
T/C [4]: 91 % of control | T/C [5]: 103 % of control | T/C [6]: 95 % of control

CC(=O)Oc1ccc2c(c1)C1(C)CCCC(C)(C(=O)O)C1CC2 (stereo not given)
T/C [7]: 92 % of control | T/C [8]: 97 % of control | T/C [9]: 94 % of control

O=C1/C(=C\c2ccccc2)Cc2cc3c(cc21)OCO3
T/C [5]: 105 % of control | T/C [6]: 113 % of control | T/C (dose: 400.0 mg/kg/injection, schedule: Q04DX003 (ip), vehicle: saline): 102 % of control

Cc1cccc2c(C)c3cccc[n+]3cc12
T/C (dose: 2.0 mg/kg/injection, schedule: Q01DX Z (ip), vehicle: carboxymethylcellulose (CMC)): 113 % of control | T/C (dose: 4.0 mg/kg/injection, schedule: Q01DX Z (ip), vehicle: carboxymethylcellulose (CMC)): 110 % of control | T/C (dose: 8.0 mg/kg/injection, schedule: Q01DX Z (ip), vehicle: carboxymethylcellulose (CMC)): 113 % of control and 123 % of control | T/C (dose: 16.0 mg/kg/injection, schedule: Q01DX Z (ip), vehicle: carboxymethylcellulose (CMC)): 115 % of control and 119 % of control

CCOC(=O)c1cnc(=O)[nH]c1Nc1ccccc1Br
T/C [10]: 95 % of control | T/C [11]: 90 % of control | T/C [12]: 95 % of control

O=C(O)COc1ccc(OS(=O)(=O)c2ccccc2)cc1
T/C (dose: 100.0 mg/kg/injection, schedule: Q04DX002 (ip), vehicle: Klucel (hydroxypropylcellulose) (HPC)): 103 % of control | T/C (dose: 200.0 mg/kg/injection, schedule: Q04DX002 (ip), vehicle: Klucel (hydroxypropylcellulose) (HPC)): 111 % of control | T/C (dose: 400.0 mg/kg/injection, schedule: Q04DX002 (ip), vehicle: Klucel (hydroxypropylcellulose) (HPC)): 103 % of control

COc1ccc2oc(C(=O)O)cc2c1
T/C (dose: 100.0 mg/kg/injection, schedule: Q04DX003 (ip), vehicle: acetone): 101 % of control | T/C (dose: 200.0 mg/kg/injection, schedule: Q04DX003 (ip), vehicle: acetone): 101 % of control | T/C (dose: 400.0 mg/kg/injection, schedule: Q04DX003 (ip), vehicle: acetone): 101 % of control

Cc1cccc(C2NC(=S)N3C(c4cccc(C)c4)NC(=S)N23)c1 (stereo not given)
T/C (dose: 100.0 mg/kg/injection, schedule: Q01DX009 (ip), vehicle: gum acacia): 100 % of control | T/C [10]: 88 % of control | T/C (dose: 200.0 mg/kg/injection, schedule: Q01DX009 (ip), vehicle: gum acacia): 100 % of control | T/C [11]: 88 % of control | T/C (dose: 400.0 mg/kg/injection, schedule: Q01DX009 (ip), vehicle: gum acacia): 91 % of control | T/C [12]: 87 % of control

O=C(/C=C/C=C\c1ccccc1)/C=C/C=C/c1ccccc1
T/C (dose: 100.0 mg/kg/injection, schedule: Q01DX001 (ip), vehicle: Klucel (hydroxypropylcellulose) (HPC)): 91 % of control | T/C [1]: 92 % of control | T/C (dose: 200.0 mg/kg/injection, schedule: Q01DX001 (ip), vehicle: Klucel (hydroxypropylcellulose) (HPC)): 93 % of control | T/C [2]: 92 % of control | T/C (dose: 400.0 mg/kg/injection, schedule: Q01DX001 (ip), vehicle: Klucel (hydroxypropylcellulose) (HPC)): 93 % of control | T/C [3]: 89 % of control

Cc1ccc([N+](=O)[O-])cc1NC(=O)SCCOC(=O)COc1ccc(Cl)cc1Cl
T/C (dose: 100.0 mg/kg/injection, schedule: Q01DX009 (ip), vehicle: saline with Tween-80): 94 % of control | T/C [7]: 93 % of control | T/C (dose: 200.0 mg/kg/injection, schedule: Q01DX009 (ip), vehicle: saline with Tween-80): 94 % of control | T/C [8]: 98 % of control | T/C (dose: 400.0 mg/kg/injection, schedule: Q01DX009 (ip), vehicle: saline with Tween-80): 105 % of control | T/C [9]: 89 % of control

COC(=O)c1ccccc1C[P+](c1ccccc1)(c1ccccc1)c1ccccc1
T/C (dose: 0.75 mg/kg/injection, schedule: Q01DX001 (ip), vehicle: saline with Tween-80): 90 % of control | T/C (dose: 0.75 mg/kg/injection, schedule: Q01DX009 (ip), vehicle: saline): 91 % of control | T/C (dose: 0.75 mg/kg/injection, schedule: Q04DX003 (ip), vehicle: saline): 108 % of control | T/C (dose: 1.5 mg/kg/injection, schedule: Q01DX001 (ip), vehicle: saline with Tween-80): 101 % of control | T/C (dose: 1.5 mg/kg/injection, schedule: Q01DX009 (ip), vehicle: saline): 102 % of control | T/C (dose: 1.5 mg/kg/injection, schedule: Q04DX003 (ip), vehicle: saline): 106 % of control | T/C (dose: 3.0 mg/kg/injection, schedule: Q01DX001 (ip), vehicle: saline with Tween-80): 100 % of control and 106 % of control | T/C (dose: 3.0 mg/kg/injection, schedule: Q01DX009 (ip), vehicle: saline): 94 % of control | T/C (dose: 3.0 mg/kg/injection, schedule: Q04DX003 (ip), vehicle: saline): 116 % of control | T/C (dose: 3.12 mg/kg/injection, schedule: Q01DX009 (ip), vehicle: saline): 100 % of control and 106 % of control | T/C (dose: 6.0 mg/kg/injection, schedule: Q01DX001 (ip), vehicle: saline with Tween-80): 101 % of control | T/C (dose: 6.25 mg/kg/injection, schedule: Q01DX009 (ip), vehicle: saline with Tween-80): 97 % of control and 111 % of control | T/C (dose: 6.25 mg/kg/injection, schedule: Q01DX009 (ip), vehicle: saline): 100 % of control and 91 % of control | T/C (dose: 12.5 mg/kg/injection, schedule: Q04DX002 (ip), vehicle: Klucel (hydroxypropylcellulose) (HPC)): 102 % of control | T/C (dose: 25.0 mg/kg/injection, schedule: Q01DX001 (ip), vehicle: saline with Tween-80): 98 % of control | T/C (dose: 25.0 mg/kg/injection, schedule: Q04DX002 (ip), vehicle: Klucel (hydroxypropylcellulose) (HPC)): 88 % of control | T/C (dose: 25.0 mg/kg/injection, schedule: Q04DX002 (ip), vehicle: saline with Tween-80): 104 % of control and 88 % of control | T/C (dose: 50.0 mg/kg/injection, schedule: Q01DX001 (ip), vehicle: saline with Tween-80): 106 % of control | T/C (dose: 50.0 mg/kg/injection, schedule: Q04DX002 (ip), vehicle: Klucel (hydroxypropylcellulose) (HPC)): 102 % of control

CC1=C(N)C(=O)C2=C(C1=O)N1CC3C(N3C)C1(O)C2COC(N)=O (stereo not given)
T/C (dose: 15.0 mg/kg/injection, schedule: Q01DX001 (ip), vehicle: acetone): 111 % of control | T/C (dose: 23.0 mg/kg/injection, schedule: Q01DX001 (ip), vehicle: acetone): 109 % of control | T/C (dose: 35.0 mg/kg/injection, schedule: Q01DX001 (ip), vehicle: saline): 111 % of control | T/C (dose: 50.0 mg/kg/injection, schedule: Q01DX001 (ip), vehicle: acetone): 108 % of control | T/C (dose: 50.0 mg/kg/injection, schedule: Q01DX001 (ip), vehicle: saline): 118 % of control
